Tests used:
[1] = result in words; cited from earlier work
rat M1 = molecular target: T1, rat M1 (Rattus norvegicus, UniProt P08482); assay: M1 agonist calcium mobilization assay (rat); type: cell-based
T1 construct: expressed in transfected cells
T1 sequence (P08482 1-460): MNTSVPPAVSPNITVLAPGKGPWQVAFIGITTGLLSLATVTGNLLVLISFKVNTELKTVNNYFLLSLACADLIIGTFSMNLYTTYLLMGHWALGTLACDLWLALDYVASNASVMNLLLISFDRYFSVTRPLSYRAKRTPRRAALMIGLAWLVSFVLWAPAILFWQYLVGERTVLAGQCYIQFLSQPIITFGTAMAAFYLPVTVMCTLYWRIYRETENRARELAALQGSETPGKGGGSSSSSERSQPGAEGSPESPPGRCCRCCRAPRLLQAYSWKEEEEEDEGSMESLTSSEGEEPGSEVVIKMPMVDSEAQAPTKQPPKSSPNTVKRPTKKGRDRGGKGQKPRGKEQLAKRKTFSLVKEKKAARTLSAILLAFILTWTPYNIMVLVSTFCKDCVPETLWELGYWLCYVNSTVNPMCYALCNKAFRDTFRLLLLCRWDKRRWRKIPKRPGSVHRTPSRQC

[2] = plasma protein binding, equilibrium dialysis (human); type: in vitro ADME; conditions: pH 7.4, read-out: fu,plasma
Procedure: Plasma protein binding and Brain homogenate binding: Determination of fraction unbound (f u) in plasma was conducted in vitro via equilibrium dialysis using HTDialysis (HTD) membrane plates. The top half of the plate was filled with 100 uL of Dubelco’s Phosphate Buffered Saline, pH 7.4 (DPBS). Compounds were diluted into plasma from each species (5 µM final concentration), which was aliquoted in triplicate to the ‘bottom half’ of the prepared HTD plate wells. The HTD plate was sealed and incubated for 6 hours at 37 °C. Following incubation, each well (both top and bottom halves) were transferred (20 µL) to the corresponding wells of a 96-shallow-well (V-bottom) plate. […]
The unbound fraction (f u) was calculated following the equation below, and mean values for each species were calculated from 3 replicates.
A similar approach was used to determine the degree of brain homogenate binding, which employed the same methodology and procedure with the following modifications: 1) a final compound concentration of 1 μM was used, 2) naïve rat brains were homogenized in DPBS (1:3 composition of brain: DPBS, w/w) using a Mini-Bead Beater™ machine in order to obtain brain homogenate, which was then treated in the same manner as the plasma samples in the previously described plasma protein binding assay. Fraction unbound for both plasma and brain samples was determined using Equation 4. […]

[3] = system: mouse native tissue layer V medial prefrontal cortex (mPFC); assay: electrophysiology (fEPSP, LTD) in layer V medial prefrontal cortex; conditions: 10 μM
Excerpt: Based on our previous experience, ,− , PAM 7 is expected to display robust pro-cognitive efficacy and maintain activity dependence of prefrontal cortical (PFC) function.

3A5 = 3A5 (Homo sapiens, UniProt P20815); assay: CYP450 phenotyping, recombinant enzymes; type: in vitro ADME; conditions: 3A5, panel of eight recombinant enzymes
Chain of 3A5 (P20815 whole entry): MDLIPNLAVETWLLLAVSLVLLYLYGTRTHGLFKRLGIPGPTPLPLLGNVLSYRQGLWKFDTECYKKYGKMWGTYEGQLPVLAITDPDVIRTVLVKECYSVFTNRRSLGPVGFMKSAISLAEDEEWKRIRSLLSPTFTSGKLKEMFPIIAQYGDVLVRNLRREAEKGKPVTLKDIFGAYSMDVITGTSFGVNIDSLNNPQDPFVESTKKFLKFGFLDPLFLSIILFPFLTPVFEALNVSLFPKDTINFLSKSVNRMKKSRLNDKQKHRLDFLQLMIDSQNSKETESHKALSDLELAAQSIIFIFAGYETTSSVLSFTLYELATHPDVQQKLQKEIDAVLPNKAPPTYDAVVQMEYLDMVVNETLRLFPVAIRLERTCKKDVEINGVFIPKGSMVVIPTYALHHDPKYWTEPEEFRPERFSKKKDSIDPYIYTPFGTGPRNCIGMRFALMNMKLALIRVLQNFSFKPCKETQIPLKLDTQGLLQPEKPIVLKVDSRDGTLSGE

[4] = 14-day rat toxicology and toxicokinetic study; type: in vivo; conditions: both sexes, rat, plasma, po, PEG-400, rat
Procedure: (§1) PAM 7, after a 250 g scale-up, advanced into 14-day rat toxicology studies, with vehicle (PEG-400), 30 mg/kg PO and 300 mg/kg PO cohorts, N = 6 per sex per cohort. […] Higher serum creatinine concentrations were however noted in males at both dose levels (+100% at 30 mg/kg/day and +300% at 300 mg/kg/day). […] Based on the observations of correlative clinical and anatomic kidney toxicity findings in an exploratory 14-day toxicity and toxicokinetics rat study, in conjunction with uncertain margins to projected systemic human therapeutic efficacy and CYP3A4 induction concerns, the development of PAM 7 was discontinued.

rats = assay: 14-day rat toxicology and toxicokinetic study; type: in vivo; conditions: for cholinergic/SLUDGE adverse effects in 14-day rat study: 30 and 300 mg/kg PO; for change in serum creatinine concentration: males
Procedure: as §1

Adrenergic α2A = molecular target: T2, Adrenergic α2A (Homo sapiens, UniProt P08913); assay: Eurofins radioligand binding
T2 construct: purchased Eurofins (contract screen, Study TW04-0011004)
T2 sequence (P08913 whole entry): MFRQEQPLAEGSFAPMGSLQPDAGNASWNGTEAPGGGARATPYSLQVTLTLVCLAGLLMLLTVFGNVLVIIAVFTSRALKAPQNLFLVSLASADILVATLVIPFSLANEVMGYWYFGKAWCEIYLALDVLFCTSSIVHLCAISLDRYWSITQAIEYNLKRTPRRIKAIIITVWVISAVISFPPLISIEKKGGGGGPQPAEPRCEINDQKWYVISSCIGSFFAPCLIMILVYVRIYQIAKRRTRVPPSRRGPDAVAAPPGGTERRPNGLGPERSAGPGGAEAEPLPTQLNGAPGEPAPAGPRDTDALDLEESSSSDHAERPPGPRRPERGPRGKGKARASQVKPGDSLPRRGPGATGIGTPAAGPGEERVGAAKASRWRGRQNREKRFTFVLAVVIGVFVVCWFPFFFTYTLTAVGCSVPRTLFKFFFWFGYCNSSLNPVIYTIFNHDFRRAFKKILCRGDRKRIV

Dopamine D4.2 = Dopamine D4.2 (Homo sapiens, UniProt P21917, DEL265-296); assay: Eurofins radioligand binding
Chain of Dopamine D4.2 (P21917 with tags, fused parts or gaps DEL265-296): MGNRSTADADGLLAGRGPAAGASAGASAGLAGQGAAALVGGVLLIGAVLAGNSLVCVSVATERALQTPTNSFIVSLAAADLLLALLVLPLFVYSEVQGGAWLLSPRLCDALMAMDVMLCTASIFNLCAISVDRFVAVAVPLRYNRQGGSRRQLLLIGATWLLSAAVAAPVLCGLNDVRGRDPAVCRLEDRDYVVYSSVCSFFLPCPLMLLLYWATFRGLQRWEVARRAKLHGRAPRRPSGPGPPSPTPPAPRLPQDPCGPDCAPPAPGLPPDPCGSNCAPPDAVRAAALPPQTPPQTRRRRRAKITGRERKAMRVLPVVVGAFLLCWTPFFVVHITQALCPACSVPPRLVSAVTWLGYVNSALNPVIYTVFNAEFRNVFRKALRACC

GABAA, Muscimol, Central = assay: Eurofins radioligand binding; conditions: Rat
GABAB1A = GABAB1A (Homo sapiens, UniProt Q9UBS5); assay: Eurofins radioligand binding
Chain of GABAB1A (Q9UBS5 15-961 limits assumed): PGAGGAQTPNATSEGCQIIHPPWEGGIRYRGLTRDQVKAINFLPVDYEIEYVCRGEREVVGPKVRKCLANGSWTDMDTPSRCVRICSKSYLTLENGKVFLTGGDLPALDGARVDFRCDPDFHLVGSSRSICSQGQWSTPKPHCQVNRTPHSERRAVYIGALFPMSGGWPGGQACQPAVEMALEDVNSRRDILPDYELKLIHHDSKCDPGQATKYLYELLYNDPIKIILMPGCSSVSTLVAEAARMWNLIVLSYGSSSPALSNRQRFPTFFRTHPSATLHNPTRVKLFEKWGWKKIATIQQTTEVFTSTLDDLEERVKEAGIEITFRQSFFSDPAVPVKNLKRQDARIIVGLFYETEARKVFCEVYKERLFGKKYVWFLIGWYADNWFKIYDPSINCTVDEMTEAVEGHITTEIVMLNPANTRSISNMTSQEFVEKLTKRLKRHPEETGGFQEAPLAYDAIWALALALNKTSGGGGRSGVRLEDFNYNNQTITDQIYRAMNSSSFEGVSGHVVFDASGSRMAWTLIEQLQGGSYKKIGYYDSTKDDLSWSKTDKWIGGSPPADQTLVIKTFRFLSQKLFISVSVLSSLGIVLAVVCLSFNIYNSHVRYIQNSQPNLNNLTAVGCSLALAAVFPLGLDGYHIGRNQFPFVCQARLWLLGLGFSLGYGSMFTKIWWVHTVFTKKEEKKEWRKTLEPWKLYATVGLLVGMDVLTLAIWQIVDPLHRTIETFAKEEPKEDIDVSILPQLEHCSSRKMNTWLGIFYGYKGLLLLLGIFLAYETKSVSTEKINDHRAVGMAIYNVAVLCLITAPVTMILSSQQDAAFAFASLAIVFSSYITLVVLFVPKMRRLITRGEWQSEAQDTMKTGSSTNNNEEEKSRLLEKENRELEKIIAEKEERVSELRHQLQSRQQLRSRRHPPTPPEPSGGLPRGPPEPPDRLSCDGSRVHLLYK
Chain of GABAB1A (O75899 42-941 partner): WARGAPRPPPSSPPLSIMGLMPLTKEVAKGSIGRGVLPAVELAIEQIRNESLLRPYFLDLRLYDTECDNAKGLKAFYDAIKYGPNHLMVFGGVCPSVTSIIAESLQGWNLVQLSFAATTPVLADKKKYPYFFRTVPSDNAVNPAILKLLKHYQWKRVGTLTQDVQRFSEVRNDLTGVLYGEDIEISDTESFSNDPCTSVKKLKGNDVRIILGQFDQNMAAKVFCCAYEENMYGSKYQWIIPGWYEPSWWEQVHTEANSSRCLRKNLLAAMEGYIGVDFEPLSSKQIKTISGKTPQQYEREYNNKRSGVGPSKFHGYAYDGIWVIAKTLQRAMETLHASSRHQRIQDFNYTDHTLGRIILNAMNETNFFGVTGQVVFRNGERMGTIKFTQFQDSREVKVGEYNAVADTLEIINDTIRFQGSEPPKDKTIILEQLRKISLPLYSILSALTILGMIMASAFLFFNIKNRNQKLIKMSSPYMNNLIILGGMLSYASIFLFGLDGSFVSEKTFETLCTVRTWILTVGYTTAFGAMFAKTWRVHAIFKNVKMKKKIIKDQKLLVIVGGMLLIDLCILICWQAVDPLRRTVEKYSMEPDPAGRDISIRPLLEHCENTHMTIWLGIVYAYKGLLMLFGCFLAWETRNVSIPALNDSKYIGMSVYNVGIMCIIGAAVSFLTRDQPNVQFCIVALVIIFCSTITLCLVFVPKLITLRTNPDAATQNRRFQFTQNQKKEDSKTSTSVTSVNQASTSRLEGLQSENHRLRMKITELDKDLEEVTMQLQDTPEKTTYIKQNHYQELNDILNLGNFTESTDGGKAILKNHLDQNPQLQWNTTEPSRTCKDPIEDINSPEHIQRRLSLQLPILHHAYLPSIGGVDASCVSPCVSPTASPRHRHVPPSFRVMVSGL

Interleukin IL-1 R1 = Interleukin IL-1 R1 (Homo sapiens, UniProt P14778); assay: Eurofins radioligand binding
Muscarinic M2 = Muscarinic M2 (Homo sapiens, UniProt P08172); assay: Eurofins radioligand binding
Chain of Muscarinic M2 (P08172 whole entry): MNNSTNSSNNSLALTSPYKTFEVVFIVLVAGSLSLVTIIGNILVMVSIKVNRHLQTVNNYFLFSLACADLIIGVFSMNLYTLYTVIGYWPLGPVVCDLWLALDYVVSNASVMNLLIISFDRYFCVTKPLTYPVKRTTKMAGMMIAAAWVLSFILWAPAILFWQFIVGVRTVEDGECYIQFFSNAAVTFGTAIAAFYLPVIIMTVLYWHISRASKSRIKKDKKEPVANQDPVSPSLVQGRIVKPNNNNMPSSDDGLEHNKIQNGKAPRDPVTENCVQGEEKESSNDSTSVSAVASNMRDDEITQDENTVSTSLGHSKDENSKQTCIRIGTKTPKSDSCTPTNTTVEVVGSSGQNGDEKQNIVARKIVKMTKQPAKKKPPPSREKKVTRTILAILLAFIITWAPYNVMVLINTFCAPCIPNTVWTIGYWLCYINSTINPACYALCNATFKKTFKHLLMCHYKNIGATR

Opiate κ (OP2, KOP) = Opiate κ (OP2, KOP) (Homo sapiens, UniProt P41145); assay: Eurofins radioligand binding
Chain of Opiate κ (OP2, KOP) (P41145 whole entry): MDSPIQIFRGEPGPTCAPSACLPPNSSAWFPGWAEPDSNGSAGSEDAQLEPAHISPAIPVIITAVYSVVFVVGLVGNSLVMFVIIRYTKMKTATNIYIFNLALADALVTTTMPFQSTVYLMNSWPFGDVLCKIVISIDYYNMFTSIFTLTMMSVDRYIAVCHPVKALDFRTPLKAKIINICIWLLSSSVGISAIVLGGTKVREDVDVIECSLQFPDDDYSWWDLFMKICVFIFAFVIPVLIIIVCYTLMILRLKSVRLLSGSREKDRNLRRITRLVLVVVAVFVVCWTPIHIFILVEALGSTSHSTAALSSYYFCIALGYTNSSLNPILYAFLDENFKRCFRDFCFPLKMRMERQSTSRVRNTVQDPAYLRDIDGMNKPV

[5] = molecular target: Platelet Activating Factor (PAF) (Homo sapiens, UniProt P25105); assay: Eurofins radioligand binding
Prostanoid EP4 = Prostanoid EP4 (Homo sapiens, UniProt P35408); assay: Eurofins radioligand binding
Chain of Prostanoid EP4 (P35408 whole entry): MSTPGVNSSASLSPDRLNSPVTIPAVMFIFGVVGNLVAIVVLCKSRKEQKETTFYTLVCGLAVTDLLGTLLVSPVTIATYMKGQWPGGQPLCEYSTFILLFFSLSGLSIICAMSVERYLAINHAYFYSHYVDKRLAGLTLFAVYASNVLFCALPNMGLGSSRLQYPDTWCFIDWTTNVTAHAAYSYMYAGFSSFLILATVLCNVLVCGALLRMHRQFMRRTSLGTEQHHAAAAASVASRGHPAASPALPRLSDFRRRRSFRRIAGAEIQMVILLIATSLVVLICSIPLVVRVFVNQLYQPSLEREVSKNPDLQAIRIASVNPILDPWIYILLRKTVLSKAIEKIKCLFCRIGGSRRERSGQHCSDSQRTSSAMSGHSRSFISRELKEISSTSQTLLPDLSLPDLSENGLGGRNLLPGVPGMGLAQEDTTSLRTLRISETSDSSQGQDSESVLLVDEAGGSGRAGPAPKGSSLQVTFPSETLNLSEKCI

Serotonin (5-HT3) = Serotonin (5-HT3) (Homo sapiens, UniProt P46098); assay: Eurofins radioligand binding
Chain of Serotonin (5-HT3) (P46098 24-478): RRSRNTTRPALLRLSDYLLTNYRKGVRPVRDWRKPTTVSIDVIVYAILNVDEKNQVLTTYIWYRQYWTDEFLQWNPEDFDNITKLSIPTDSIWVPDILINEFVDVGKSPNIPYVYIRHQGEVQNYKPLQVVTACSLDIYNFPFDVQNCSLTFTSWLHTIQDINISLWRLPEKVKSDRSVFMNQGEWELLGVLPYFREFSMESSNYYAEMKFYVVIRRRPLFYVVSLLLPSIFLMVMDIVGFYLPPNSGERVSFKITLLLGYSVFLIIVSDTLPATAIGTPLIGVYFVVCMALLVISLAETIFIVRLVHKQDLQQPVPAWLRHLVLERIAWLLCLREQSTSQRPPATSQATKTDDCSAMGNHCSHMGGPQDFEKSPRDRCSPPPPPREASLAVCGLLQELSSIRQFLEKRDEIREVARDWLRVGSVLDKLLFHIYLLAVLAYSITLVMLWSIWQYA

[6] = 300 mg/kg, Day 14, 300 mg/kg PO

## Cn1cc2c(-c3cc(F)c(CN4Cc5ncccc5C4=O)c(F)c3)cccc2n1 [compound 1, reference compound]
[1]
  cholinergic toxicity in Phase I SAD trial: without any observed cholinergic toxicity

## Cn1cc2c(-c3cc(F)c(CN4Cc5ncccc5C4=O)c(F)c3)ccc(C(C)(C)O)c2n1 [compound 7]
Rat M1; rat M1, % ACh max, n = 5
  rM1 Agonist AChmax (%): 17%
Rat M1; rat M1, n = 5, read-out: rM1 Agonist EC50
  EC50: > 10 µM
[2]
  fraction unbound at 6 h, 5 µM: 0.037
[3]
  PPR: 112%
  field excitatory postsynaptic potentials (fEPSPs), % baseline: 86 % baseline
3A5
  contribution to metabolism, CYP450 phenotyping: 3.2%
[4]; 30 mg/kg, Day 1, 30 mg/kg PO
  AUC(0-t): 224 µM·h
  Cmax: 20.9 µM
[4]; 30 mg/kg, Day 14, 30 mg/kg PO
  AUC(0-t): 107 µM·h
  Cmax: 10 µM
[4]; 300 mg/kg, Day 1, 300 mg/kg PO
  AUC(0-t): 758 µM·h
  Cmax: 37.9 µM
[4]; [6]
  AUC(0-t): 909 µM·h
  Cmax: 52.9 µM
rats; 300 mg/kg/day, result in words
  microscopic pathology of kidney: pyknotic cells were also seen in collecting tubules, and less extensively, in the renal papilla
rats; result in words
  cholinergic/SLUDGE adverse effects in 14-day rat study: No cholinergic/SLUDGE adverse effects were observed
  organ weights or histology: no gross changes on organ weights or histology
rats; result in words, listed as VU6052254
  cholinergic/SLUDGE adverse effects in 14-day rat study: no cholinergic adverse effects
rats; both dose levels, result in words
  microscopic pathology of renal cortex and medulla: dose-related increase in number of pyknotic cells in the lumen of descending tubules/proximal collecting tubules
rats; first of the two printed values (30 mg/kg cohort implied)
  total plasma concentration relative to the plasma concentration at MED in the CFC assay (0.3 mg/kg PO): 125 x
rats; males administered 300 mg/kg, result in words
  fibrinogen concentration: minimally higher fibrinogen concentration
rats; males administered up to 30 mg/kg, result in words
  hematology test results: no PAM 7-related effects noted in hematology test results
rats; 30 mg/kg/day
  change in serum creatinine concentration: +100%
rats; 300 mg/kg/day
  change in serum creatinine concentration: +300%
rats; second of the two printed values (300 mg/kg cohort implied)
  total plasma concentration relative to the plasma concentration at MED in the CFC assay (0.3 mg/kg PO): 227 x
Adrenergic α2A
  IC50: 3.2 µM
Adrenergic α2A; Adrenergic α2A, Human
  inhibition at 10 µM: 75%
Dopamine D4.2
  inhibition at 10 µM: -5%
GABAA, Muscimol, Central
  % Inhibition at 10 µM: -10%
GABAB1A
  inhibition at 10 µM: 7%
Interleukin IL-1 R1
  inhibition at 10 µM: -10%
Muscarinic M2
  inhibition at 10 µM: 3%
Opiate κ (OP2, KOP)
  inhibition at 10 µM: 15%
[5]
  inhibition at 10 µM: 1%
Prostanoid EP4
  inhibition at 10 µM: 21%
Serotonin (5-HT3)
  inhibition at 10 µM: -14%

— PMC12715762, “Discovery of VU6052254: A Novel, Potent M1 Positive Allosteric Modulator” (ACS Chemical Neuroscience, 2025)
